Here are results for eleven compounds from patent US20260166031A1, “Methods of Treating Lipedema and Lymphatic Disease of the Subcutaneous Tissue” (Celltaxis, LLC, priority 2023, published 2026).

Broadly, the IC50 is the concentration that inhibits the measured activity by half. The inhibition is the relative decrease from the control value, in per cent. Low readings indicate a weak effect, high ones a strong effect. The term EC50 denotes the midpoint of the concentration-response curve.

≈ marks a conversion by molar mass, not a printed value. Entries after “also recorded” stand apart in the source; their conditions may differ. Like-named read-outs stand apart in the source and are kept apart here. Bounds are passed on as bounds.

Data set [1] addresses T1, LTA4H aminopeptidase activity (Homo sapiens, UniProt P09960).
T1 sequence (P09960 1-611): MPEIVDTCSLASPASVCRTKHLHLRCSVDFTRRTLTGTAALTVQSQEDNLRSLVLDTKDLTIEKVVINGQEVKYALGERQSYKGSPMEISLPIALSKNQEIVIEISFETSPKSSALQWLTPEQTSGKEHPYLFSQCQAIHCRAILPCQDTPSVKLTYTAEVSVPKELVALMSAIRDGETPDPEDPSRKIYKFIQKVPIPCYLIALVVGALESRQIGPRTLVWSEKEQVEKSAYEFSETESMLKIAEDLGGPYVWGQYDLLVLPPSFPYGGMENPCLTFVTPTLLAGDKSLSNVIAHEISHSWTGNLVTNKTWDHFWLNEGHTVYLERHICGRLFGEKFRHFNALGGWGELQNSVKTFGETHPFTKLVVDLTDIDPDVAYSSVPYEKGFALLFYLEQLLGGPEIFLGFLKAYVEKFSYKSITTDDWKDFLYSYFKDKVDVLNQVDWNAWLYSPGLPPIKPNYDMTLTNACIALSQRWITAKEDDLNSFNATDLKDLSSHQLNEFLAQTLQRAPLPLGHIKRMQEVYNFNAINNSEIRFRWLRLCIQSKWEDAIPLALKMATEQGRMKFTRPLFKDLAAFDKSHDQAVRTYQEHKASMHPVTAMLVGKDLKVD

The target in data set [2] is T2, LTA4H epoxide hydrolase activity (Homo sapiens, UniProt P09960).
T2 sequence (P09960 1-611): T1 sequence (P09960 1-611)
The settings on record: Table 3; read-out: Epoxide Hydrolase IC50 ± SEM; cited from earlier work.

The next data set concerns the target T3, LTA4H (Homo sapiens, UniProt P09960).
T3 sequence (P09960 1-611): T1 sequence (P09960 1-611)
To be noted: cited from earlier work.

The subject of data set [3] is affected limb of lymphedema patients. Description: Expanded access program, bioimpedance of affected limb. It counts as in vivo, human. To be noted: 6 months vs baseline; p<0.01; higher bioimpedance = lower water content. The text has this:
Bioimpedance is a measure of water content, and a higher bioimpedance corresponds to a lower water content.
FIGS. 5A, 5B and 5C are graphs presenting the same data as change in bioimpedance (as compared to baseline) over time.

The subject of data set [4] is sputum white blood cells and neutrophils of CF patients. Description: Sputum cell counts in CF patients.
Data set [5] relates to lymphedema patients. The experiment in a line: Expanded access program, dermal ultrasound. It is filed as in vivo, human.
Another data set relates to LTB4 production. Description: Pharmacodynamic studies in humans, LTB4 production/inhibition. It is filed as in vivo, human.
Data set [6] has as its system lymphedema patients. Description: Expanded access program, LymVAS quality of life. It is filed as in vivo, human. To be noted: as early as 3 months, maintained at 6 months; 11 EAP patients. Here is the method: Quality of life indicators were also evaluated in the 11 EAP patients using LymVAS, a tool to interrogate lymphedema patient experience and is based on experience and practice from prior lymphedema trials. LymVAS uses a sliding visual analog scale, wherein patients move the slider along a line to indicate the degree of response to a question. LymVAS has two segments: 1.

Data set [7] deals with affected (lymphedematous) limb of lymphedema patients. The experiment in a line: Expanded access program, skin thickness of affected limb by caliper. It counts as in vivo, human. To be noted: p<0.0001. On the procedure: Skin thickness was measured by caliper.
At 6 months, a 43% reduction in skin thickness was observed (mean for 10 patients; p<0.0001).

The next data set concerns neutrophil swarming. The experiment in a line: Neutrophil swarming in vitro in response to factors in human CF sputum. To be noted: acebilustat 48 ng/mL, factors present in human CF sputum.
In data set [8] the test system is upper limb lymphedema patient. Description: HEAL Phase 2 trial case report, dermal ultrasound of forearm. It counts as in vivo, human. To be noted: Stage II lymphedema subject. The text has this: We present the early ultrasonographic responses of a participant who has completed 3 months of a total 6-month exposure. The primary endpoint for this trial involves quantitative analysis of dermal ultrasound skin changes.
These preliminary results lend great promise to the HEAL trial.

For the next data set, the system named is adult patients with CF. The settings on record: 48 weeks of treatment; Phase II adult CF patients; cited from earlier work.
In data set [9] the test system is affected limb of lymphedema patients. The experiment in a line: Expanded access program, limb volume. It counts as in vivo, human. To be noted: 6 months; mean for 6 patients; p<0.03. The text has this: At 6 months, a 6.7% reduction in limb volume was observed (mean for 6 patients; p<0.03).
In data set [10] the test system is LTB4 production in human whole blood. Description: Human whole blood ex vivo LTB4 production. It counts as cell-based. To be noted: human whole blood tested ex vivo; read-out: approximate IC50, LTB4 production. On the procedure: The hydrolase-homogeneous time resolved fluorescence assay is a two-step assay that measures the hydrolysis of LTA4 to LTB4 by analyzing the amount of LTB4 produced. The first step involves the enzymatic conversion of LTA4 to LTB4 and the second step involves the quantification of the LTB4 formed with a homogeneous time resolved fluorescence assay. […] In the whole blood assay, the inhibitor compounds are tested for their ability to inhibit LTB4 release upon stimulation with calcium ionophore and the LTB4 levels in supernatants are measured by ELISA.

Where [11] appears, read: Table 2; read-out: Aminopeptidase IC50 ± SEM; cited from earlier work.
The mark [12] stands for this setting: Table 3; read-out: Aminopeptidase IC50 ± SEM; cited from earlier work.
[13] abbreviates: patient with right leg lymphedema, at 6 months.
[14] abbreviates: 3 months of treatment vs baseline.
The mark [15] stands for this setting: 3 months of treatment vs baseline, listed as Acebilustat.

As to `CC(=O)Oc1ccc(/C=C/c2cc(OC(C)=O)cc(OC(C)=O)c2)cc1` [Cmpd 4], the IC50 in [1] (Table 1; read-out: Aminopeptidase IC50 ± SEM; cited from earlier work) was above 100 µM.
For `COc1cc(O)cc(CCc2ccc(O)cc2)c1` [Cmpd 6], the IC50 in data set [1] (setting [11]) is above 100 µM.
For the compound `CCOc1cc(O)cc(CCc2ccc(O)cc2)c1` [Cmpd 7], in data set [1] (setting [11]), the IC50 is above 100 µM.
For `COc1cc(O)cc(CCc2cccc(O)c2)c1` [Cmpd 8], in data set [1] (setting [11]), the IC50 was above 100 µM.
On to `COc1cc(O)cc(CCc2ccccc2O)c1` [Cmpd 9], for which the IC50 in data set [1] (setting [11]) is above 100 µM.
In the case of `O=C(Cc1ccc(O)cc1)c1ccc(O)cc1O` [Cmpd 10], the IC50 in data set [1] (setting [12]) is above 100 µM.
For the compound `O=c1c(-c2ccc(O)cc2)coc2cc(O)ccc12` [Cmpd 11], the IC50 in [1] (read-out: Aminopeptidase IC50 ± SEM; Table 3; cited from earlier work) was above 100 µM.
As to `O=c1c(-c2ccc(O)cc2)coc2c(O)c(O)ccc12` [Cmpd 12], the IC50 in data set [2] was 7.3 ± 0.8 µM.
As to `O=c1c(-c2ccccc2)coc2cc(O)ccc12` [Cmpd 13], the IC50 in data set [1] (setting [12]) was above 100 µM.
With `CC(C)C[C@H](NC(=O)[C@@H](O)[C@H](N)Cc1ccccc1)C(=O)O` [Ubenimex], on LTA4H, the “potency at inhibiting LTB4 generation versus PGP degradation (selectivity class)” value is given as “non-selective LTA4H inhibitor”.
As for `O=C(O)c1ccc(CN2C[C@@H]3C[C@H]2CN3Cc2ccc(Oc3ccc(-c4ncco4)cc3)cc2)cc1` [acebilustat, 4-{[(1S,4S)-5-({4-[4-oxazol-2-yl-phenoxy]phenyl}methyl)-2,5-diazabicyclo[2.2.1]heptan-2-yl]methyl}benzoic acid], the “bioimpedance (water content) of affected limb” value in [3] was “significantly lower water content; also recorded: significantly higher bioimpedance”. Besides, the “decrease of sputum white blood cells from Baseline” value in data set [4] (100 mg acebilustat group) was found to be 60%. Also, the “decrease of sputum neutrophils” value in [4] (100 mg group) turned out to be 65%. Further, the “decrease of sputum neutrophils” value in [4] (all treated patients (doses of 50 to 100 mg)) is 34%. The “decrease of sputum white blood cells from Baseline” value in [4] (all treated subjects (doses of 50 or 100 mg)) was determined as 31%. Further, the “reduction in subcutaneous thickness” value in the data set with lymphedema patients [5] (different patient (FIG. 7), after 6 months of treatment) is listed as 15.2%. Besides, in the data set with lymphedema patients [5] (setting [13]), the “reduction of dermal thickness” value was found to be 3.7%, the “reduction of subdermal thickness” value was “over 20.2%” and the “reduction of total thickness” value was 17.6%. This compound registered an inhibition at 50 mg in the data set with LTB4 production (50 mg dose, human pharmacodynamic studies) of at least 63%. The inhibition at 100 mg in the data set with LTB4 production (100 mg dose, human pharmacodynamic studies) is at least 74%. The inhibition at 150 mg in the data set on LTB4 production (150 mg dose, human pharmacodynamic studies) is at least 82%. Further, the LTB4 inhibition entry in the data set on LTB4 production (200 mg, human pharmacodynamic studies) is recorded as “at least 85%”. Further, the EC50 in the data set on LTB4 production (Homo sapiens, pharmacodynamic studies in humans, read-out: estimated in vivo EC50, inhibition of LTB4 production) is 0.093 µg/mL (≈ 0.193 µM). Further, in the data set with lymphedema patients [6], the “LymVAS Total Change Score” value is recorded as “significant improvement” and the “LymVAS quality of life Total Status Score” value was “significant improvement”. Moreover, the “skin thickness of affected limb” value in [7] (3 months after acebilustat treatment vs baseline, caliper) is on record as “dramatically reduced; also recorded: significant decrease”. Besides, the “reduction in skin thickness” value in data set [7] (6 months vs baseline, mean for 10 patients) is reported as 43%. Further, the “reduction of neutrophil swarming” value in the data set with neutrophil swarming is recorded as 80%. Further, the “demarcation of dermo-epidermal junction and subcutaneous fascial bands” value in data set [8] (3 months of treatment) is reported as “enhanced demarcation”. For the same compound, in data set [8] (setting [14]), the “dermal echogenicity by ultrasound” value is listed as “reduced echogenicity”, the “dermal thickness by ultrasound” value is recorded as “reduced dermal thickness” and the subcutaneous tissue echogenicity entry is on record as “decreased”. Besides, in [8] (setting [15]), the “dermal thickness by ultrasound” value was “reduced” and the subcutaneous tissue echogenicity result is on record as “reduced”. For the same compound, in the data set on adult patients with CF, the “rate of pulmonary exacerbations” value is “showed promise in reducing the rate of pulmonary exacerbations” and the risk of infection entry was “no evidence of increased risk of infection”. Besides, the “reduction in limb volume” value in data set [9] is on record as 6.7%. Moreover, in data set [10], the IC50 was around 0.0308 µg/mL (≈ 0.064 µM).
